Experiments:
Bmal1 gene = Bmal1 gene expression (RT-PCR, relative to RPLP0) in cultured human skin fibroblastic cells; format: cell-based; conditions: expression at 2 and 16 hours after stimulation
Description: As the cultured human fibroblastic cells, fibroblastic cells from normal human skin were purchased (Cell Application, Inc.) and used in the experiments. They were inoculated in DMEM medium supplemented with 10% FBS, 20 mM HEPES, Glutamax and antibacterial agents and cultured at 37° C. in 5% CO2. On the 6th day of culture, 50 ng/mL of cortisol or 10 μM of forskolin was added, and the samples were harvested at various times after time 0, which was defined as the time immediately after the addition of cortisol or forskolin. RNA was extracted from the cells with a commercially available RNA extraction kit, and the amounts of expression of the intended genes were measured by RT-PCR technology using commercially available PCR primers (Perfect Real Time Primer, Takara Bio). As for clock genes, amounts of expression of Period (represented by Period1) and Bmal1, which are involved in the core system, were determined. Similarly, the amounts of expression of a housekeeping gene RPLP0 were quantified and used as an internal standard to calculate the relative expression of the intended genes to RPLP0. […] Test substances were evaluated for the expression modulating effect on a Bmal gene based on the amount of gene expression at 16 hours after stimulation. […]

Period1 gene = Period1 gene expression in cultured skin fibroblastic cells; format: cell-based, human
Description: As the cultured human fibroblastic cells, fibroblastic cells from normal human skin were purchased (Cell Application, Inc.) and used in the experiments. They were inoculated in DMEM medium supplemented with 10% FBS, 20 mM HEPES, Glutamax and antibacterial agents and cultured at 37° C. in 5% CO2. On the 6th day of culture, 50 ng/mL of cortisol or 10 μM of forskolin was added, and the samples were harvested at various times after time 0, which was defined as the time immediately after the addition of cortisol or forskolin. RNA was extracted from the cells with a commercially available RNA extraction kit, and the amounts of expression of the intended genes were measured by RT-PCR technology using commercially available PCR primers (Perfect Real Time Primer, Takara Bio). As for clock genes, amounts of expression of Period (represented by Period1) and Bmal1, which are involved in the core system, were determined. Similarly, the amounts of expression of a housekeeping gene RPLP0 were quantified and used as an internal standard to calculate the relative expression of the intended genes to RPLP0. […]

| Compound | Induction of Bmal1 expression rhythm and increase of Bmal1 gene expression (in words) (Bmal1 gene) | Induction of Period gene expression rhythm or promotion of its expression (in words) (Period1 gene) |
| --- | --- | --- |
| C[C@]12CCC(=O)C=C1CC[C@@H]1[C@@H]2[C@@H](O)C[C@@]2(C)[C@H]1CC[C@]2(O)C(=O)CO [cortisol] | significantly increase amounts of gene expression of Bmal1 |  |
| C=C1CC/C=C(\C)CC[C@@H]2[C@@H]1CC2(C)C [beta-Caryophyllene] |  | can induce expression rhythm of a Period gene or promote its expression |

From patent publication US20130022635A1, “Expression Modulator For Clock Gene Bmal” (SHISEIDO COMPANY, LTD., priority 2010, published 2013)
